Source: patent publication EP0942896B1, “SUBSTITUTED PHENOLS AND THIOPHENOLS USEFUL AS ANTIOXIDANT AGENTS” (Aventis Pharmaceuticals Inc., priority 1996, dated 1998)

Tests used:
[1] = system: oxidation of serum lipids; test: TBARS assay on serum of treated rats (CuSO4-initiated oxidation); type: in vivo, Male Sprague-Dawley rats; details: % of control; thiobarbituric acid reactive substances as nmoles MDA, rat serum; diet 0.3%, 4 days; N = 5
From the text: (§1) A typical experiment consists of 4-6 groups of rats (N = 5 per group) with I group being a control which receives no MDL compound and the other groups being treated with 0.3% MDL compound. Some of the compounds are either repeated at 0.3% or evaluated again at the lower dose of 0.1%. House Male Sprague-Dawley rats, 50-100 g, (Harlan Laboratories, Indianapolis, IN) in groups of 5, feeding ad libitum water and Purina Rodent chow (#5002) with or without MDL compound as a dietary admixture for 4 days. Make dietary admixtures (0.3%) by mixing 1.2 grams of an MDL compound with 400 grams of Purina rodent chow (#5002). Mix the MDL compound with approximately 50 grams of food using a mortar and pestle. This is added to the remainder of the food and mixed for 3 hours on a rotary mixer. In the morning of day 5, anesthetize non-fasted rats with carbon dioxide, and collect blood by cardiac puncture. Sacrifice rats by cervical dislocation. Record body weights and liver weights in grams. Record food consumption as grams • day^-1 • rat^-1. Deaths are recorded as mortality. Use aliquots of fresh serum for clinical chemistries, thiobarbituric acid reactive substances (TBARS) and conjugated diene measurements. Freeze aliquots of serum (∼ 0.5mL) and whole livers at -20°C for compound and metabolite concentration determination at a later time.
In this assay the oxidation of serum lipids is initiated with CuSO4, resulting in the formation of aldehydes, such as malondialdehyde (MDA). Upon incubation with thiobarbituric acid, the absorbance of the aldehydes can be detected at 530-540 nm. As stated in the previous example, TBARS values which are lower than control serum values indicate the relative ability of a test compound to inhibit the oxidation of lipids in a sample. Measure TBARS as follows: mix 100µL of serum with 400µL of a 5mmol CuSO4 solution and incubate at 37°C for 3 hr. Stop the reactions by addition of 1.0mL of 20% trichloroacetic acid. Then add 1.0mL of 0.67% thiobarbituric acid in 0.05 N sodium hydroxide, mix, and incubate the samples for 30 min at 90°C. Centrifuge samples briefly to pellet undissolved material, and transfer the supernatants to a 96-well microtiter plate. Measure absorbances at 540 nm using a Biotek model EL311 microplate reader. The nmoles of MDA produced are calculated from a standard curve of 0 to 10 nmoles of MDA prepared from malonaldehyde bis(dimethylacetal). Serum samples from treated rats are compared to serum samples from control rats that received no MDL compound.

VCAM-1 = test: Inhibition of VCAM-1 expression in proliferating human umbilical vein endothelial cells (cell ELISA); type: cell-based; details: HUVEC, coincubated with tumor necrosis factor-alpha about 20 to 24 hr, average of three runs, numbers in parentheses represent negative values, read-out: VCAM-1 (% inh. 50 µM)
Protocol: Plate proliferating human umbilical vein endothelial cells (HUVEC) or human aortic smooth muscle cells (HASMC) from Clonetics (San Diego, CA) onto 96-well plates in 100 µL medium per well at 20,000 cells per cm^2. Maintain the cultures in growth medium (EGM or SMGM2, Clonetics, San Diego, CA) for two days prior to addition of cytokines or drugs. Add cytokines plus or minus compounds for 20 to 24 hours prior to analysis for adhesion molecule levels. Add tumor necrosis factor (Genzyme, Cambridge, MA) to cultures at 500-1000 units/mL to stimulate ICAM-1 expression. Add interleukin-4 (GIBCO-BRL, Gaithersburg, MD) to cultures at 100-200 pg/mL to stimulate VCAM-1 expression. […] Remove the culture medium, and wash the monolayers twice with Hanks buffered saline solution (HBSS) at room temperature. Add the primary antibody (anti-human VCAM-1 from Upstate Biotechnology, Inc., Lake Placid, NY or anti-human ICAM-1 from Immunotech, Inc., Westbrook, ME) to each well (1 µg/mL in HBSS plus 5% newborn calf serum, GIBCO-BRL, Gaithersburg, MD) and incubate at 37°C for 1 hr. Wash the wells twice with HBSS, then add 100 µL of a 1/1000 dilution of goat anti-mouse IgG conjugated to horse radish peroxidase (BioRad, Hercules, CA) in HBSS plus 5% newborn calf serum to each well and incubated for 1 hr at 37°C. […] Measure absorbance at 450 nm with a plate reader. […]

ICAM-1 = test: Inhibition of ICAM-1 expression in proliferating human umbilical vein endothelial cells (cell ELISA); type: cell-based; details: HUVEC, coincubated with tumor necrosis factor-alpha about 20 to 24 hr, average of two runs, read-out: ICAM-1 (% inh. 50 µM)
Protocol: Plate proliferating human umbilical vein endothelial cells (HUVEC) or human aortic smooth muscle cells (HASMC) from Clonetics (San Diego, CA) onto 96-well plates in 100 µL medium per well at 20,000 cells per cm^2. Maintain the cultures in growth medium (EGM or SMGM2, Clonetics, San Diego, CA) for two days prior to addition of cytokines or drugs. Add cytokines plus or minus compounds for 20 to 24 hours prior to analysis for adhesion molecule levels. Add tumor necrosis factor (Genzyme, Cambridge, MA) to cultures at 500-1000 units/mL to stimulate ICAM-1 expression. Add interleukin-4 (GIBCO-BRL, Gaithersburg, MD) to cultures at 100-200 pg/mL to stimulate VCAM-1 expression. […] Remove the culture medium, and wash the monolayers twice with Hanks buffered saline solution (HBSS) at room temperature. Add the primary antibody (anti-human VCAM-1 from Upstate Biotechnology, Inc., Lake Placid, NY or anti-human ICAM-1 from Immunotech, Inc., Westbrook, ME) to each well (1 µg/mL in HBSS plus 5% newborn calf serum, GIBCO-BRL, Gaithersburg, MD) and incubate at 37°C for 1 hr. Wash the wells twice with HBSS, then add 100 µL of a 1/1000 dilution of goat anti-mouse IgG conjugated to horse radish peroxidase (BioRad, Hercules, CA) in HBSS plus 5% newborn calf serum to each well and incubated for 1 hr at 37°C. Wash the wells three times with HBSS, then add 100 µL of TMB substrate (BioRad, Hercules, CA) to each well. Stop the reaction after blue color develops by addition of 50 µL of IN H2SO4. Measure absorbance at 450 nm with a plate reader. […] In these experiments, the cells were coincubated with tumor necrosis factor-alpha along with the indicated compounds about 20 to 24 hr before assaying cell surface adhesion molecule expression.

oxidation of lipids = test: Conjugated diene lag phase determination on pooled serum of treated rats; type: in vivo, Male Sprague-Dawley rats; details: not normalized, mean of 2 determinations of pooled rat serum (N = 5), diet 0.3%, 4 days
From the text: as §1
Conjugated diene lag phase is another indicator of the oxidation of lipids. Lipids exposed to Cu^++ form conjugated dienes that absorb ultraviolet light in the range of 230 to 235 nm. The lag phase of diene formation gives an indication of the amount of oxidation of the lipids. A lag phase longer than control samples indicate inhibition of the oxidation. Determine conjugated diene lay phase using a Varian DMS200 spectrophotometer (fitted with a constant temperature, 5 cuvette sample changer) at 30°C. Add twenty (20) µL of pooled serum to cuvettes containing 3.0mL phosphate buffered saline, pH 7.5, and mix. Measure the absorbances of all cuvettes and set the instrument baseline to zero using the lowest absorbing sample. Next, add 100µL of 1 mmol CuSO4 and mix immediately. Record the absorbance of each cuvette at 2 min intervals for a period of 840 min. Capture the data and transfer to a Microsoft EXCEL® spreadsheet where the curves are smoothed and differentials obtained. Determine lag times mathematically as minutes. Pool serum samples (N = 5); data presented are the mean values of 2 determinations. Compare serum samples from treated rats to serum samples from control rats that received no MDL compound.

SMILES | TBARS [1] | inhibition at 50 µM (VCAM-1) | inhibition at 50 µM (ICAM-1) | CONJ. DIENE (oxidation of lipids)
CC(C)=CCC[C@H](C)CCOc1cc(C(C)(C)C)c(O)c(C(C)(C)C)c1 [MDL 103,294, Phenol, 2,6-bis(1,1-dimethylethyl)-4-[(3,7-dimethyl-6-octenyl)oxy]-, (S)-] | 18% | – | – | –
CC(C)=CCCC(C)CCSc1cc(C(C)(C)C)c(O)c(C(C)(C)C)c1 (centres unmarked) [MDL 103,960, Phenol, 2,6-bis(1,1-dimethylethyl)-4-[(3,7-dimethyl-6-octenyl)thio]-] | 24% | 25.7% | 9.5% | 363 min
CC(C)CCCC(C)CCOc1ccc(O)c(C(C)(C)C)c1 (centres unmarked) [MDL 104,191, Phenol, 2-(1,1-dimethylethyl)-4-[(3,7-dimethyloctyl)oxy]-] | 20% | 34.3% | 70.5% | 708 min
CC(C)=CCC[C@@H](C)CCOc1cc(C(C)(C)C)c(O)c(C(C)(C)C)c1 [MDL 104,535, Phenol, 2,6-bis(1,1-dimethylethyl)-4-[(3,7-dimethyl-6-octenyl)oxy]-,(R)-] | 11% | – | 11.5% | –
